Reference: the NIST ThermoML archive (doi:10.1016/j.fluid.2009.09.019)
± gives the expanded uncertainty stated by the source.

Assay: refractive index (Na D-line) (dimensionless)
Details: 293.2 K; 101.33 kPa; Liquid; Standard Abbe refractometry

SMILES | refractive index
Cc1ccccc1 [toluene] | 1.4967 ± 0.0004
O=C1CCCO1 [γ-butyrolactone] | 1.4344 ± 0.0005
CCCCCC [hexane] | 1.375 ± 0.0004
C1CCCCC1 [cyclohexane] | 1.4263 ± 0.0005
CCCCCCC [heptane] | 1.3873 ± 0.0004

Assay: not given
Details: 293.2 K; 101.33 kPa; Liquid; Vibrating tube method

SMILES | mass density [kg/m3]
O=C1CCCO1 [γ-butyrolactone] | 1128.7 ± 1.1
CCCCCC [hexane] | 660.1 ± 0.25
C1CCCCC1 [cyclohexane] | 778.12 ± 0.61
CCCCCCC [heptane] | 684.1 ± 0.25
